This experiment has as its target T1, human acetyl-CoA carboxylase 2 (ACC2) (Homo sapiens, UniProt O00763).
T1 construct: The cDNA encoding amino acids 144 to 2458 of human acetyl-CoA carboxylase 2; made in house; host or cells: Sf9 insect cells (baculovirus, pFastBac1)
Briefly: Acetyl-CoA carboxylase enzyme assay (malonyl-CoA formation by LC/MS/MS). The experiment is classed as biochemical. The note with it: recombinant human ACC2 (aa 144-2458); read-out: IC50 ACC2. The procedure, abridged:
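Malonyl-CoA formation was read by LC/MS/MS MRM against a [13C3]-malonyl-CoA internal standard, after acetic acid quench. The enzyme was baculovirus/Sf9-expressed human ACC2 residues 144–2458, given 15 minutes room-temperature compound preincubation in HEPES pH 7.5 buffer with MgCl2, citrate and DTT. Substrate solution held 50 μM acetyl-CoA, 120 μM ATP and 2 mM KHCO3.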
T1 sequence (O00763 144-2458): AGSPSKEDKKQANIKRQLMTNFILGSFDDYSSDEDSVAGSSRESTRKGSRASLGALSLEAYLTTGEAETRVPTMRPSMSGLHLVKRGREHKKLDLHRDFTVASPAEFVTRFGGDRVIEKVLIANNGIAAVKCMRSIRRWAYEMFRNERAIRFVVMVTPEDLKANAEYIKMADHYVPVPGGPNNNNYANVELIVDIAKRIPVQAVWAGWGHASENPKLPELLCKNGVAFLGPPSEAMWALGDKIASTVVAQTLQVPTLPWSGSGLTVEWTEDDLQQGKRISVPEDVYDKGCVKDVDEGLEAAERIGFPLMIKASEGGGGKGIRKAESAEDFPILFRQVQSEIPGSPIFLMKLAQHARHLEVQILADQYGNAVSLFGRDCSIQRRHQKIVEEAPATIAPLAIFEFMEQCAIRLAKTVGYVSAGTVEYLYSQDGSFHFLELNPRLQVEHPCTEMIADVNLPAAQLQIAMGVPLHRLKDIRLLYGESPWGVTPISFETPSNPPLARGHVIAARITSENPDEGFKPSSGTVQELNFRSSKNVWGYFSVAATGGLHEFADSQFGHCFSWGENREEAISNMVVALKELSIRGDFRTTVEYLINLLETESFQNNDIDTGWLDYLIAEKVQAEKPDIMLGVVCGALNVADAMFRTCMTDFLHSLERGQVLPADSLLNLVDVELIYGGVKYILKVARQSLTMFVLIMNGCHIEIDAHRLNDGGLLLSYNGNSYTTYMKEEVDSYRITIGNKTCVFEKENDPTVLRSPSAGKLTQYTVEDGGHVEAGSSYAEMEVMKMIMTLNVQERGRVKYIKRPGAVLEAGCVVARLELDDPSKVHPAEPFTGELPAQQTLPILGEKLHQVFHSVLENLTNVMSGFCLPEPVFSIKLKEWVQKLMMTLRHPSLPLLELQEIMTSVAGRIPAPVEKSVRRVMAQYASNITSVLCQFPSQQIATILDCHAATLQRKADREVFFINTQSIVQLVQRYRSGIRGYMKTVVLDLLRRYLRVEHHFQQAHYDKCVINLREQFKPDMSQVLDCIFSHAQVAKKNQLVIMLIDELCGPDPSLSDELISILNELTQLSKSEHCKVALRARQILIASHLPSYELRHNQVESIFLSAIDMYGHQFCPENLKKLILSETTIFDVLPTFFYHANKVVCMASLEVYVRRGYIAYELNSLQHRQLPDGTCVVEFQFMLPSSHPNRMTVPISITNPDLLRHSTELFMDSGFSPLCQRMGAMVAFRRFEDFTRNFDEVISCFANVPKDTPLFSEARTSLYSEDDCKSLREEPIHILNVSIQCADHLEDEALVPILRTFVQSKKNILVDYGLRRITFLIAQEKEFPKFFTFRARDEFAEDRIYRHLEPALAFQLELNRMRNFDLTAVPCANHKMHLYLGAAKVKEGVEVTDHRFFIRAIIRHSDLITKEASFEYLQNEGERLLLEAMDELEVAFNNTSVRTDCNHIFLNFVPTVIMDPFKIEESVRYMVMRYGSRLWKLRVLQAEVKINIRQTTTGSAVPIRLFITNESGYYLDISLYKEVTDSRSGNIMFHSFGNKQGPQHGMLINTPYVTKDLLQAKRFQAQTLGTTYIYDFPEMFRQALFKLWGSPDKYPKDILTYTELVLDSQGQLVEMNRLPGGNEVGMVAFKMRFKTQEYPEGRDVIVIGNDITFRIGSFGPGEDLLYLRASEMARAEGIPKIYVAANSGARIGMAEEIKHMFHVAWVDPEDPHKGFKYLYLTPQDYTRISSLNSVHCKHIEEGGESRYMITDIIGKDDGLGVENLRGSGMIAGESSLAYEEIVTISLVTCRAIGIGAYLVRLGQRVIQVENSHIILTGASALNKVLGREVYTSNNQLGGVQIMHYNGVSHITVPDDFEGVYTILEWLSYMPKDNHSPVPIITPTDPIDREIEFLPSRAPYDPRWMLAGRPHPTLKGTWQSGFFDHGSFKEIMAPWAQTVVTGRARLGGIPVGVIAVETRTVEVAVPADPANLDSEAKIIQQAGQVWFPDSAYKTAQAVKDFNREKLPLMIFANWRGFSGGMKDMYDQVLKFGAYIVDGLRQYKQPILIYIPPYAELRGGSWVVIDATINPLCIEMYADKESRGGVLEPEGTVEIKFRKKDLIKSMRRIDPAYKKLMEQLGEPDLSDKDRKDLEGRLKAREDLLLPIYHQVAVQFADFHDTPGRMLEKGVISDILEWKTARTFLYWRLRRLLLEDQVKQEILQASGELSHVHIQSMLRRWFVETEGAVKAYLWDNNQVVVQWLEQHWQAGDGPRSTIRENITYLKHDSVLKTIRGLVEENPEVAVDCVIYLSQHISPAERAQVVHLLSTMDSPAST
Turning to `O=C([C@H]1CC[C@H](NS(=O)(=O)c2ccc3[nH]c(-c4ccccc4)nc3c2)CC1)N1CCOCC1` [Example 650, N-((1r,4r)-4-(morpholine-4-carbonyl)cyclohexyl)-2-phenyl-1H-benzo[d]imidazole-5-sulfonamide], the IC50 turned out to be 304 nM.

For the compound `CCCCOC(=O)c1ccc(NS(=O)(=O)c2ccc3nc(-c4ccccc4)[nH]c3c2)cc1` [Example 491, butyl 4-(2-phenyl-1H-benzo[d]imidazole-6-sulfonamido)benzoate], the IC50 came to 1130 nM.

Consider `CC(C)(C)c1nnc(-c2ccc(NS(=O)(=O)c3ccc4[nH]c(-c5ccc(N6CCOCC6)cc5)nc4c3)cc2)o1` [Example 593, N-(4-(5-tert-butyl-1,3,4-oxadiazol-2-yl)phenyl)-2-(4-morpholinophenyl)-1H-benzo[d]imidazole-5-sulfonamide], for which the IC50 stood at 1010 nM.

For the compound `COc1ccc(-c2cc3ccc(S(=O)(=O)N[C@H]4CC[C@H](C(=O)N5CCOC[C@@H]5C(C)C)CC4)cc3n2C)cc1` [Example 441, N-((1S,4r)-4-((S)-3-isopropylmorpholine-4-carbonyl)cyclohexyl)-2-(4-methoxyphenyl)-1-methyl-1H-indole-6-sulfonamide], the IC50 was less than 10 nM.

For `CC(C)OC(=O)c1ccc(NS(=O)(=O)c2ccc3[nH]c(Nc4ccc5c(c4)OCCO5)nc3c2)cc1` [Example 526, isopropyl 4-(2-(2,3-dihydrobenzo[b][1,4]dioxin-6-ylamino)-1H-benzo[d]imidazole-5-sulfonamido)benzoate], the IC50 stood at 178 nM.

Consider `C[C@@H](NC(=O)[C@H]1CC[C@H](NS(=O)(=O)c2ccc3nc(O)ccc3c2)CC1)c1ccc(F)cc1` [Example 54, (1r,4R)-N-((R)-1-(4-fluorophenyl)ethyl)-4-(2-hydroxyquinoline-6-sulfonamido)cyclohexanecarboxamide], for which the IC50 came to 193 nM.

Take `O=C(O)[C@@H]1CCCN(C(=O)[C@H]2CC[C@H](NS(=O)(=O)c3ccc4ccccc4c3)CC2)C1` [Example 163, (R)-1-((1r,4R)-4-(naphthalene-2-sulfonamido)cyclohexanecarbonyl)piperidine-3-carboxylic acid]: the IC50 worked out at 8520 nM.

Take `CCOC(=O)C1CCCCN1C(=O)[C@H]1CC[C@H](NS(=O)(=O)c2ccc3cc(-c4ccc(COC)cc4)[nH]c3c2)CC1` (stereo partly drawn) [Example 340, ethyl 1-((1r,4r)-4-(2-(4-(methoxymethyl)phenyl)-1H-indole-6-sulfonamido)cyclohexanecarbonyl)piperidine-2-carboxylate]: the concentration for half-maximal inhibition (IC50) was 255 nM.

For `CC(=O)N1CCc2cc(S(=O)(=O)N[C@H]3CC[C@H](C(=O)N[C@H](C)c4ccc(F)cc4)CC3)ccc21` [Example 106, (1r,4R)-4-(1-acetylindoline-5-sulfonamido)-N-((R)-1-(4-fluorophenyl)ethyl)cyclohexanecarboxamide], the IC50 worked out at 388 nM.

Take `O=C([C@H]1CC[C@H](NS(=O)(=O)c2cnc3c(c2)NCCN3)CC1)N1CCNCC1c1ccccc1` (stereo partly drawn) [Example 186, N-((1r,4r)-4-(2-phenylpiperazine-1-carbonyl)cyclohexyl)-1,2,3,4-tetrahydropyrido[3,2-b]pyrazine-7-sulfonamide]: the IC50 stood at 245 nM.

Regarding `Cc1cc(-c2ccc3cc(S(=O)(=O)N[C@H]4CC[C@H](C(=O)N[C@H](C)c5ccc(F)cc5)CC4)ccc3n2)cc(C)n1` [Example 227, (1r,4R)-4-(2-(2,6-dimethylpyridin-4-yl)quinoline-6-sulfonamido)-N-((R)-1-(4-fluorophenyl)ethyl)cyclohexanecarboxamide], the IC50 amounted to 15 nM.

Consider `Cn1c(-c2ccccc2)cc2cc(S(=O)(=O)N[C@H]3CC[C@H](C(=O)N4CC(C(=O)O)CCC4c4ccccc4)CC3)ccc21` (stereo partly drawn) [Example 92, 1-((1r,4r)-4-(1-methyl-2-phenyl-1H-indole-5-sulfonamido)cyclohexanecarbonyl)-6-phenylpiperidine-3-carboxylic acid], for which the IC50 is less than 10 nM.

Regarding `C[C@@H](NC(=O)[C@H]1CC[C@H](NS(=O)(=O)c2ccc3nc(N4CCN(C)CC4)ccc3c2)CC1)c1ccc(F)cc1` [Example 38, (1r,4R)-N-((R)-1-(4-fluorophenyl)ethyl)-4-(2-(4-methylpiperazin-1-yl)quinoline-6-sulfonamido)cyclohexanecarboxamide], the IC50 stood at 50 nM.

Turning to `C[C@@H](NC(=O)[C@H]1CC[C@H](NS(=O)(=O)c2cnc3c(c2)N(C)[C@@H]2CCCC[C@H]2N3C)CC1)c1ccc(F)cc1` [Example 139, (1R,4R)-4-((5aR,9aR)-5,10-dimethyl-5,5a,6,7,8,9,9a,10-octahydropyrido[3,2-b]quinoxaline-3-sulfonamido)-N-((R)-1-(4-fluorophenyl)ethyl)cyclohexanecarboxamide], the IC50 is 16 nM.

Turning to `C[C@H]1COCCN1C(=O)[C@H]1CC[C@H](NS(=O)(=O)c2ccc3c(Cl)c(C4CC4)n(C)c3c2)CC1` [Example 426, 3-chloro-2-cyclopropyl-1-methyl-N-((1S,4r)-4-((S)-3-methylmorpholine-4-carbonyl)cyclohexyl)-1H-indole-6-sulfonamide], the 50% inhibitory concentration (IC50) turned out to be 55 nM.

`C[C@@H](NC(=O)[C@H]1CC[C@H](NS(=O)(=O)c2ccc3c(c2)N(C)CCC3)CC1)c1ccc(F)cc1` [Example 148, (1r,4R)-N-((R)-1-(4-fluorophenyl)ethyl)-4-(1-methyl-1,2,3,4-tetrahydroquinoline-7-sulfonamido)cyclohexanecarboxamide]: the IC50 turned out to be 10 nM.

For the compound `O=C(NCC1CCCCCC1)[C@H]1CC[C@H](NS(=O)(=O)c2ccc3[nH]c(-c4ccccc4)nc3c2)CC1` [Example 641, (1r,4r)-N-(cycloheptylmethyl)-4-(2-phenyl-1H-benzo[d]imidazole-5-sulfonamido)cyclohexanecarboxamide], the IC50 was 276 nM.

On to `O=C(NC1Cc2ccccc2C1)[C@H]1CC[C@H](NS(=O)(=O)c2ccc3[nH]c(-c4ccccc4)nc3c2)CC1` [Example 638, (1r,4r)-N-(2,3-dihydro-1H-inden-2-yl)-4-(2-phenyl-1H-benzo[d]imidazole-5-sulfonamido)cyclohexanecarboxamide], for which the half-inhibitory concentration (IC50) worked out at 125 nM.

As to `COCCN(C(=O)[C@H]1CC[C@H](NS(=O)(=O)c2ccc3[nH]c(-c4ccccc4)nc3c2)CC1)C(C)C` [Example 675, (1r,4R)-N-isopropyl-N-(2-methoxyethyl)-4-(2-phenyl-1H-benzo[d]imidazole-5-sulfonamido)cyclohexanecarboxamide], the IC50 worked out at 105 nM.

With `CC(C)OC(=O)c1ccc(NS(=O)(=O)c2ccc3[nH]c(Nc4ccccc4)nc3c2)cc1` [Example 521, isopropyl 4-(2-(phenylamino)-1H-benzo[d]imidazole-5-sulfonamido)benzoate], the IC50 turned out to be 239 nM.

As for `COC(=O)c1ccc(-c2nc3cc(S(=O)(=O)N[C@H]4CC[C@H](c5nnc(C(C)(C)C)o5)CC4)ccc3[nH]2)cc1` [Example 652, methyl 4-(5-(N-((1r,4r)-4-(5-tert-butyl-1,3,4-oxadiazol-2-yl)cyclohexyl)sulfamoyl)-1H-benzo[d]imidazol-2-yl)benzoate], the IC50 was 869 nM.

In the case of `O=C(Nc1ccccc1)c1ccc(NS(=O)(=O)c2ccc3[nH]c(-c4ccccc4)nc3c2)cc1` [Example 490, N-phenyl-4-(2-phenyl-1H-benzo[d]imidazole-5-sulfonamido)benzamide], the IC50 is more than 139000 nM.

`COCCNC(=O)[C@H]1CC[C@H](NS(=O)(=O)c2ccc3[nH]c(-c4ccccc4)nc3c2)CC1` [Example 634, (1r,4r)-N-(2-methoxyethyl)-4-(2-phenyl-1H-benzo[d]imidazole-5-sulfonamido)cyclohexanecarboxamide]: the IC50 was determined as 1680 nM.

Turning to `CC(C)(C)OC(=O)N1CCN(C(=O)[C@H]2CC[C@H](NS(=O)(=O)c3ccc4c(c3)oc3ccccc34)CC2)[C@@H](c2ccccc2)C1` [Example 263, (S)-tert-butyl 4-((1r,4S)-4-(dibenzo[b,d]furan-3-sulfonamido)cyclohexanecarbonyl)-3-phenylpiperazine-1-carboxylate], the IC50 worked out at 30 nM.

Turning to `CC(C)OC(=O)c1ccc(NS(=O)(=O)c2ccc3[nH]c(Nc4cccc(Cl)c4)nc3c2)cc1` [Example 547, isopropyl 4-(2-(3-chlorophenylamino)-1H-benzo[d]imidazole-5-sulfonamido)benzoate], the half-inhibitory concentration (IC50) amounted to 374 nM.

`O=C([C@H]1CC[C@H](NS(=O)(=O)c2cnc3ccccc3c2)CC1)N1CCCC1C(F)(F)F` (stereo partly drawn) [Example 48, N-((1r,4r)-4-(2-(trifluoromethyl)pyrrolidine-1-carbonyl)cyclohexyl)quinoline-3-sulfonamide]: the 50% inhibitory concentration (IC50) was found to be 32800 nM.

Consider `O=C([C@H]1CC[C@H](NS(=O)(=O)c2ccc3[nH]c(-c4ccccc4)nc3c2)CC1)N1Cc2ccccc2C1` [Example 623, N-((1r,4r)-4-(isoindoline-2-carbonyl)cyclohexyl)-2-phenyl-1H-benzo[d]imidazole-5-sulfonamide], for which the IC50 was found to be 560 nM.

Turning to `C[C@@H](NC(=O)[C@H]1CC[C@H](NC(=O)c2ccc3[nH]c(-c4ccccc4)nc3c2)CC1)c1ccc(F)cc1` [Example 662, N-((1R,4r)-4-((R)-1-(4-fluorophenyl)ethylcarbamoyl)cyclohexyl)-2-phenyl-1H-benzo[d]imidazole-5-carboxamide], the IC50 was 32500 nM.

In the case of `COCCc1ccc(-c2[nH]c3cc(S(=O)(=O)N[C@H]4CC[C@H](C(=O)N5CCOC[C@@H]5C5CC5)CC4)ccc3c2Cl)cc1` [Example 471, 3-chloro-N-((1S,4r)-4-((S)-3-cyclopropylmorpholine-4-carbonyl)cyclohexyl)-2-(4-(2-methoxyethyl)phenyl)-1H-indole-6-sulfonamide], the IC50 is less than 10 nM.

Take `C[C@@H](NC(=O)[C@H]1CC[C@H](NS(=O)(=O)c2ccc3cc(-c4ccccc4)[nH]c3c2)CC1)c1ccccc1` [Example 282, (1r,4R)-4-(2-phenyl-1H-indole-6-sulfonamido)-N-((R)-1-phenylethyl)cyclohexanecarboxamide]: the IC50 is 18 nM.

Source of the values: patent US8697739B2, “Bicyclic acetyl-CoA carboxylase inhibitors and uses thereof” (Novartis AG, priority 2010, dated 2014).
